The melting point is the temperature of the solid-liquid transition.

`CCCN(CCCCc1c[nH]c2ccc(F)cc12)C1COc2c(ccc3ncccc23)C1` (configuration not stated) registered a melting point of 164 °C.

`O=C(O)c1ccc2c(c1)nc(-c1ccc(Oc3cccc(-c4cccc(Cl)c4)c3)cc1)n2C1CCCCC1` gave a melting point of 253 to 254 °C.

Turning to `CC(=O)CC1=C(C#N)C(c2cccc3nonc23)c2c[nH]nc2N1` (configuration not stated), the melting point came out at 200 °C.

On to `CC(C)n1nc(-c2cnc(N)nc2-c2ccncc2)ccc1=O`, for which the melting point came to 219 °C.

As to `CCC1(c2ccc(C(O)C(C)(C)C)cc2)OCCO1` (configuration not stated), the melting point lay within 52 to 56 °C.

Molecule `NCCCc1cn(C(c2ccccc2)(c2ccccc2)c2ccccc2)cn1` yielded a melting point of 112 to 113 °C.

For `Cc1ccccc1NC(=O)CN1CC2CCC(C1)N2S(=O)(=O)c1cccc2nonc12`, the melting point is 167 to 168 °C.

As for `CN(C)C(=O)N1CCc2ccc(S(=O)(=O)NC(=O)NC3CCCC3)cc2CC1`, the melting point lay within 179 to 180 °C.

Regarding `CCCCOC(=O)c1cc2c3ccccc3[nH]c(=O)n2n1`, the melting point was 190 to 195 °C.

In turn, `CCCCc1nc(C(C)(C)O)c(C(=O)OCOC(=O)OC(C)C)n1Cc1ccc(-c2ccccc2C(=O)O)cc1` returned a melting point of 154 to 156 °C.

`COC1OCC[C@@H]1NC(=O)CN(CC(C)C)C(=O)CNC(=O)COc1ccc2c(c1)Nc1ccccc1S2` (some centres not stated) showed a melting point of 162 to 164 °C.

`N#Cc1nn(-c2c(Cl)cc(C(F)(F)F)cc2Cl)cc1C(=O)C(F)(F)F`: the melting point was 124 to 125 °C.

`CCOC(=O)c1cnc2n(c1=O)-c1ccccc1N(C(C)=O)C2`: the melting point was in the range of 152 to 155 °C.

In turn, `COc1cc(Nc2c(C#N)cnc3cc(C#Cc4ccccn4)ccc23)c(Cl)cc1Cl` came in with a melting point of 238 to 240 °C.

The molecule `CN1CCCC1CC(O)c1cccc(O)c1` (configuration not stated) yielded a melting point of 147 to 150 °C.

Turning to `N#Cc1cccn(-c2cccnc2Cl)c1=O`, the melting point turned out to be 145 °C.

As to `CC(c1ccc(F)cc1)N(O)C(N)=O` (configuration not stated), the melting point was 127 to 129 °C.

`COc1cc(N)ccc1C(=O)O` showed a melting point of 144 to 146 °C.

`CCOC(=O)Cc1nc(N)cc(Cl)n1` registered a melting point of 127 to 128 °C.

For the molecule `O=C(O)c1cc(=O)c(Oc2ccc(C3CCCCC3)cc2)co1`, the melting point is 187 to 190 °C.

The molecule `O=C(CBr)NCCSC(c1ccccc1)(c1ccccc1)c1ccccc1` returned a melting point of 130 to 135 °C.

Molecule `CC12CCC(O)CC1=CC(O)C1C2CCC2(C)C(O)C(O)CC12` (configuration not stated) had a melting point of 217 to 221 °C.

`CCCCC(Sc1cc(C(C)(C)C)c(O)c(C(C)(C)C)c1)C(=O)O` (configuration not stated): the melting point was in the range of 140 to 142 °C.

As to `COc1ccccc1-c1c(C)c(C)c2cnc(Nc3ccc(N4CCOCC4)cc3)nn12`, the melting point lay within 169 to 172 °C.

The molecule `CC(=O)Nc1nc2c(Oc3cc(-c4ccc(C(F)(F)F)cc4O)ncn3)cccc2s1` returned a melting point of 302 to 304 °C.

The molecule `COC(=O)N(C(=O)NN=C1c2ccc(Cl)cc2CC1(O)C(=O)OC)c1ccc(OC(F)(F)F)cc1` (configuration not stated) displayed a melting point of 168 °C.

Consider `CCCO[Si](C)(CCN=C(O)C1(C)C(C)(C(=O)O)C(C)(C(=O)O)C1(C)C(O)=NCC[Si](C)(OCCC)OCCC)OCCC` (configuration not stated), for which the melting point stood at 151 °C.

Take `O=C1c2ccccc2CN1CCCOc1ccncc1`: the melting point lay in the range of 70 to 71 °C.

Regarding `Cn1c(C(F)(F)F)cc(=O)n(-c2ccc3snc(C=C(Br)Br)c3c2)c1=O`, the melting point was 260 to 262 °C.

With `O=C(O)CC(Cc1ccccc1)NC(=O)C1Cc2ccccc2N1S(=O)(=O)c1ccc(-c2ccc(F)cc2)cc1` (configuration not stated), the melting point lay within 87 to 90 °C.

`CCNC(=O)c1ccc(CN2C(=O)C3(COc4cc5c(cc43)CCO5)c3ccccc32)cc1` (configuration not stated) displayed a melting point of 190 to 191 °C.

The molecule `OC1CSC(Oc2cnccc2-c2ccc(C(F)(F)F)cc2)C(O)C1O` (configuration not stated) had a melting point of 204 °C.

The molecule `FC(F)(F)c1ccc2c(Nc3ccccc3)ncnc2c1` had a melting point of 230 to 232 °C.

With `CC1(C)C(C#CC(=O)OCC2CC2)C1C(=O)OC(C#N)c1cccc(Oc2ccccc2)c1` (configuration not stated), the melting point amounted to 72 °C.

Molecule `CC(Cc1ccc(OCC(=O)O)cc1)NS(=O)(=O)c1ccc(Cl)cc1` (configuration not stated) registered a melting point of 132 to 136 °C.

Regarding `COc1cc(N)c(Cl)cc1C(=O)NCC1CCN(CCCCCC(=O)c2ccc(Cl)c(Cl)c2)CC1`, the melting point lay within 203 to 205 °C.

Molecule `CCOC(=O)CCCCC(=O)OC[C@@H]1CC(c2ccc(-c3ccc(N4C[C@H](Cn5ccnn5)OC4=O)cc3F)cn2)=NO1` returned a melting point of 88 °C.

For the molecule `O=C(/C=C1\CCc2ccc(F)cc21)NC1CC1`, the melting point lay within 124 to 127 °C.

For `CC(C)CCc1c(-c2ccc(S(C)(=O)=O)c(F)c2)cnn(-c2ccc(F)c(F)c2)c1=O`, the melting point lay in the range of 119 to 121 °C.

As to `CC(C)CC(=O)Nc1c(C(=O)c2cccc(Cl)c2)[nH]c2ccc([N+](=O)[O-])cc12`, the melting point was in the range of 197 to 199 °C.

Take `CC1(C)Oc2ccc(C#N)cc2C(Nc2ccc(=O)[nH]c2)C1O` (configuration not stated): the melting point lay within 285 to 287 °C.

Take `Cc1cccc2c1Cc1ccccc1OC(C(=O)O)O2` (configuration not stated): the melting point was found to be 61 °C.

As to `N#CC(C#N)=CN(N=C(C#N)C#N)c1ccc(F)cc1`, the melting point was 138 to 139 °C.

In turn, `CC(C)c1nn(-c2ccc(C(F)(F)F)cc2)cc1C=O` registered a melting point of 81 to 82 °C.

`CC1(CF)C=C(Br)c2cc([N+](=O)[O-])ccc2O1` (configuration not stated): the melting point lay in the range of 116 to 117 °C.

For the molecule `COc1ccc2c(c1)c(Cc1cc(=O)n(-c3ccccc3)[nH]1)c(C)n2C(=O)c1ccc(Cl)cc1`, the melting point lay within 148 to 150 °C.

`CC(C)(C)OC(=O)N1CCC(CCOS(C)(=O)=O)CC1` returned a melting point of 60 to 63 °C.

As to `CC(=O)N[C@@H]1CC[C@@H](O)c2ccccc21` (relative stereo), the melting point lay in the range of 120 to 127 °C.

In the case of `CCCCCCCOc1cc2c(cc1/C(C)=C/c1ccc(C(=O)O)cc1)C(C)(C)CCCS2(=O)=O`, the melting point was 153 to 154 °C.

Molecule `CCOC(=O)C(=O)c1cc(Cl)c(C)cc1F` displayed a melting point of 84 to 85 °C.

Regarding `O=C1c2ccccc2C(=O)N1CC=CCn1ccnc1`, the melting point is 106 to 108 °C.

As to `O=C(/C=C/c1cccc(Cl)c1)N1CCCC1`, the melting point was in the range of 137 to 138 °C.

For `COCCOc1ccc(/C=C/C(=O)NS(=O)(=O)c2ccccn2)c(Oc2ncc(C(F)(F)F)cc2Cl)c1`, the melting point was in the range of 164 to 165 °C.

As to `CNc1cccc(-c2ccc3nnc(C)n3n2)c1`, the melting point lay within 223 to 226 °C.

`O=C(O)Cc1ccc2nc(-c3ccccc3)oc2c1` gave a melting point of 170 °C.

As to `COc1ccc2c(c1)Sc1cc([N+](=O)[O-])ccc1N2C(C)=O`, the melting point was in the range of 156 to 157 °C.

In the case of `Cc1cc2cc(CN3CCCC3)cnc2cc1NC(=O)c1ccc(-c2ccc(Cl)cc2)c(F)c1`, the melting point fell in the range of 181 to 185 °C.

The molecule `Nc1sc2c(c1C(=O)c1ccc(Br)c3ccccc13)CCCC2` gave a melting point of 176 to 178 °C.

`CCOc1cc(N)c(Cl)cc1C(=O)NCCC1CN(Cc2ccccc2)CCO1` (configuration not stated) registered a melting point of 149 to 151 °C.

`O=C(CN1CCC(n2c(=O)[nH]c3ccccc32)CC1)Nc1ccc(C2CCCCC2)cc1` had a melting point of 130 to 132 °C.

`NC(N)=Nc1nc(-c2ccc(CNC(=O)CS(=O)Cc3ccco3)o2)cs1` (configuration not stated) displayed a melting point of 208 to 209 °C.

With `CS(=O)(=O)CC1COCc2nc3c(N)nc4ccccc4c3n21` (configuration not stated), the melting point is 158 to 161 °C.
